Reference: ChEMBL document CHEMBL1201862, “PubChem BioAssay data set” (2004)
The source made the active and inactive calls.

Key:
Cytochrome P450 2C9 = Cytochrome P450 2C9 (Homo sapiens, UniProt P11712)
Cytochrome P450 2C19 = Cytochrome P450 2C19 (Homo sapiens, UniProt P33261); assay: Cytochrome panel assay with activity outcomes. Panel member name: p450-cyp2c19 Compounds with AC50 equal or less than 10 uM are considered active; type: functional; conditions: read-out: AC50
Cytochrome P450 2D6 = Cytochrome P450 2D6 (Homo sapiens, UniProt P10635);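 note: CYP2D6 member of a cytochrome P450 panel assay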
Chain of Cytochrome P450 2D6 (P10635 whole entry): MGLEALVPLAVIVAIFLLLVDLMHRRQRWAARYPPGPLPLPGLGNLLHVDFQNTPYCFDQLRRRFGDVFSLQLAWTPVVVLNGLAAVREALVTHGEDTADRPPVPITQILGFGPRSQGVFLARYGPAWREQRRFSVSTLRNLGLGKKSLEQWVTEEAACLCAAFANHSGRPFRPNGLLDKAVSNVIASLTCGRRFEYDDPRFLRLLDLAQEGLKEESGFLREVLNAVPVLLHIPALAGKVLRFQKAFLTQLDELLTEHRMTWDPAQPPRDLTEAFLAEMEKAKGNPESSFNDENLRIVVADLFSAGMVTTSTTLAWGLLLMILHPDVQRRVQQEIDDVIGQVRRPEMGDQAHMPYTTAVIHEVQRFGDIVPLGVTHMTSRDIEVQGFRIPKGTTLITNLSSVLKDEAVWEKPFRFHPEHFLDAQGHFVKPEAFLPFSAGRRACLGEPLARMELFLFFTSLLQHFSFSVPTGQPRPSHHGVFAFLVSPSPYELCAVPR

cells = type: functional
[1] = THP-1 cell cytotoxicity, dose response, cytotoxicity control for non-replicating M. tuberculosis project (AID 489025); type: functional
[2] = inhibitors of intracellular T. cruzi replication, confirmation, NIH3T3 host cells, beta-gal luminescence (AID 2044); type: functional, cell-based;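 note: intracellular parasites grown in NIH/3T3 mouse fibroblasts as host cells; luminescent beta-galactosidase reporter signal from transgenic T. cruzi replicating inside host cells; inhibitors lower the luminescence signal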
[3] = test system: Streptococcus sp. 'group A'; assay: growth inhibition of control SK(-) GAS strain, dose response, counter-screen for streptokinase expression inhibitor project, luminescence, kanamycin, BacTiterGlo, confirmation (AID 1900); type: functional, organism-based
Streptococcus = assay: Group A Streptococcus viability loss, dose response, counter-screen for streptokinase expression inhibitor project, luminescence, BacTiterGlo (AID 1915); type: functional, organism-based;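 note: potency for reduction of bacterial viability or growth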
[4] = C. albicans growth with fluconazole, confirmation, fluorescence, retest (AID 2467); type: functional, cell-based
[5] = NIH-3T3 fibroblast cytotoxicity, dose response, cytotoxicity control, cell-based, fluorescence, Alamar Blue, secondary assay (AID 2327); type: functional;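 note: NIH-3T3 mouse fibroblasts cultured with fluconazole at 8 µg/mL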
[6] = molecular target: T1, Short transient receptor potential channel 4 (Mus musculus, UniProt Q9QUQ5); assay: mouse TRPC4 channel activators, dose response, cell-based, HEK293 TRPC4/mu-opioid, Fluo-4 calcium (AID 434937); type: functional
T1 sequence (Q9QUQ5 whole entry): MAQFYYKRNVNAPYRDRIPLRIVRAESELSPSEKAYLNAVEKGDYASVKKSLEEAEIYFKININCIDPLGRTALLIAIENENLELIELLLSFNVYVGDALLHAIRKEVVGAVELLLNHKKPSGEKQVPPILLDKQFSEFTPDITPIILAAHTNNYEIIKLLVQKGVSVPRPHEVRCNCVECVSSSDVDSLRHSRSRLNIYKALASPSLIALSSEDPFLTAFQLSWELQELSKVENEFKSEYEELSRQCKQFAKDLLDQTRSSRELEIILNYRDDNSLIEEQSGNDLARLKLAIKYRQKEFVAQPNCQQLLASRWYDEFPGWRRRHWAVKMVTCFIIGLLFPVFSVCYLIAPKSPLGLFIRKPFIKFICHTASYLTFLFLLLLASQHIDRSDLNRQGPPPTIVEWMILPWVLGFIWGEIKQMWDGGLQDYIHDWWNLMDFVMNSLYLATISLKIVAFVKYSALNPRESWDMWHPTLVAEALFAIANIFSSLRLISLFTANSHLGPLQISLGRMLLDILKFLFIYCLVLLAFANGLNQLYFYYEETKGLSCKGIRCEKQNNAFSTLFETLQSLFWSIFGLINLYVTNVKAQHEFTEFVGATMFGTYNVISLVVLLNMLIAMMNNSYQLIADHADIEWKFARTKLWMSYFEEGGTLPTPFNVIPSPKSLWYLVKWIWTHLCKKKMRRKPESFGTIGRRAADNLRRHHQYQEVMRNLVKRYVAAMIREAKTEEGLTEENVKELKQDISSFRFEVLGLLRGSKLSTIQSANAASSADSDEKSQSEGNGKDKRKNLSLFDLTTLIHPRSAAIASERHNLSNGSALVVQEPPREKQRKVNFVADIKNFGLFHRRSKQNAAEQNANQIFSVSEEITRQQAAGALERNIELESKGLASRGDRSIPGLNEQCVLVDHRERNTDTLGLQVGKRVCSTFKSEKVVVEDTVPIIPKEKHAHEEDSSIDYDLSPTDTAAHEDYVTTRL

[7] = cytotoxicity toward NIH3T3 fibroblasts, dose response, counter-screen, cell-based, ATP luminescence, mouse fibroblasts (AID 2010); type: functional;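 note: cells exposed to compound for about 90 hours before reading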
HEK293 [8] = assay: cells; type: functional, cell-based; conditions: Homo sapiens
HEK293 [9] = assay: cells; conditions: Homo sapiens
Tumor necrosis factor = Tumor necrosis factor (Homo sapiens, UniProt P01375); assay: TNFa-triggered NF-kB activation inhibitors, SAR follow-up, cell-based, revised (AID 2337); type: functional
Chain of Tumor necrosis factor (P01375 whole entry): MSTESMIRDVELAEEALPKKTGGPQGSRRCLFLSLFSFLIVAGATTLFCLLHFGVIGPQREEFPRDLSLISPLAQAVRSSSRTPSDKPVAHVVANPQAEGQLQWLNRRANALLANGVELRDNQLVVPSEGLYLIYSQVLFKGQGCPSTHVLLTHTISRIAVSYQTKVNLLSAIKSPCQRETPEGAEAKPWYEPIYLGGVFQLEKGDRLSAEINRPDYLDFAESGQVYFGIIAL

HEK293 [10] = assay: NOD1 signaling inhibitors, primary screen, cell-based, luminescence, uHTS (AID 1578); type: functional; conditions: Homo sapiens
HEK293 [11] = assay: cells; type: functional, cell-based; conditions: Homo sapiens; remark: listed apart in the source
[12] = molecular target: T2, Nucleotide-binding oligomerization domain-containing protein 1 (Homo sapiens, UniProt Q9Y239); assay: NOD1 signaling inhibitors, SAR follow-up, revised (AID 2333); type: functional
T2 sequence (Q9Y239 whole entry): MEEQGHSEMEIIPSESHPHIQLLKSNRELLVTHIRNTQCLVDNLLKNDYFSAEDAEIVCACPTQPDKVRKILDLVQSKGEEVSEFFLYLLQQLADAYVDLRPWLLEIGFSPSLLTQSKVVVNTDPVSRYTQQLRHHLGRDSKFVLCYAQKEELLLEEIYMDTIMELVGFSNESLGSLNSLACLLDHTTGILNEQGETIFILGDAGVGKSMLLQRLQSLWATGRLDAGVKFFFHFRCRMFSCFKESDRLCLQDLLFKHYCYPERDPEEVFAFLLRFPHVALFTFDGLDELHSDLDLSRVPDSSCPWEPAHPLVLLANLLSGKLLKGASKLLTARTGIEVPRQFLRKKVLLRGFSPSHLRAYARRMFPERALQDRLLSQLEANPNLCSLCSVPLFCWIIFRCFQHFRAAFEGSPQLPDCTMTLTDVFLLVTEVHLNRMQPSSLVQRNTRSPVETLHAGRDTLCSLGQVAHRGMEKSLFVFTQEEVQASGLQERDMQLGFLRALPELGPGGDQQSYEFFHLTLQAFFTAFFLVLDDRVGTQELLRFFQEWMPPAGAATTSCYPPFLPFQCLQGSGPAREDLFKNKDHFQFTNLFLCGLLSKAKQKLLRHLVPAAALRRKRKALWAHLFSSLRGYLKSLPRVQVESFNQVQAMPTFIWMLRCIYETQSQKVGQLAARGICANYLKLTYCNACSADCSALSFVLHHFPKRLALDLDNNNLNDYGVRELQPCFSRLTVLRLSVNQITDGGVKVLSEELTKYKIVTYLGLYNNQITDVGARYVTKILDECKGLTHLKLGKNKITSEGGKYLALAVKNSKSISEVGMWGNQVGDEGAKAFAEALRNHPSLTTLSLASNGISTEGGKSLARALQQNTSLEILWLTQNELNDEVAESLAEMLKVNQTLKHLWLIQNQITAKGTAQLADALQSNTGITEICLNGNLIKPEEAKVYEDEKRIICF

HEK293 [13] = assay: NOD2 signaling inhibitors in MDP-stimulated cells, cell-based, uHTS, luminescence (AID 2001); type: functional; conditions: Homo sapiens
INS1 = assay: beta cell apoptosis inhibitors, cytokine rescue, dose response, luminescence, retest (AID 449756); type: functional, cell-based; conditions: Rattus norvegicus;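 note: cell death triggered by IL-1 beta plus TNF-alpha plus IFN-gamma mixture; protective hits raise ATP signal compared with cytokine alone wells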
[14] = molecular target: T3, Microphthalmia-associated transcription factor (Homo sapiens, UniProt O75030); assay: TRPM1 promoter luciferase signal decrease, dose response, MITF inhibitor project, cell-based, SK-MEL-5, cherry-picked, set 3 (AID 493073); type: functional
T3 sequence (O75030 whole entry): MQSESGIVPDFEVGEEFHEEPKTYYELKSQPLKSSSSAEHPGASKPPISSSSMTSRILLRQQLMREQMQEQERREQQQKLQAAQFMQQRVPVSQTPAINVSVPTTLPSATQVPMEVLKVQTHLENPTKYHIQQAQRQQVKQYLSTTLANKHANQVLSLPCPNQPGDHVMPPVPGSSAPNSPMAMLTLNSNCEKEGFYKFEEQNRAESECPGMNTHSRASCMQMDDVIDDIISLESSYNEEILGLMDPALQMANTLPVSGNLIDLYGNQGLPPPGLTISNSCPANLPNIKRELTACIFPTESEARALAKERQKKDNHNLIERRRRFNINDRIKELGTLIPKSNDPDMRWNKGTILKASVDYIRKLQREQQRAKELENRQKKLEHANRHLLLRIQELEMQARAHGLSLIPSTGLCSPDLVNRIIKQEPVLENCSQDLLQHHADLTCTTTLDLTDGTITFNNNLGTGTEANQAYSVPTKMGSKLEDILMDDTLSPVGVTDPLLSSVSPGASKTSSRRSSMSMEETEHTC

[15] = cytotoxicity in HEK-293T cells, dose response, cytotoxicity control for TCR NF-kB inhibitor project, luminescence, T-cell screen hits (AID 489026); type: functional, cell-based;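 note: cells exposed to compound about 14 hours before the viability readout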
[16] = molecular target: T1, Short transient receptor potential channel 4; assay: mouse TRPC4 channel inhibitors, dose response, cell-based, HEK293 TRPC4/mu-opioid, Fluo-4 calcium (AID 434942); type: functional;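 note: potency of inhibitors blocking the TRPC4 calcium response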
Genome polyprotein = Genome polyprotein (dengue virus type 2, UniProt P29990); assay: Dengue-2 NS5 methyltransferase inhibitors, primary screen, biochemical, confirmation dose response (AID 588689); type: functional
Chain of Genome polyprotein (P29990 2492-3391 limits assumed): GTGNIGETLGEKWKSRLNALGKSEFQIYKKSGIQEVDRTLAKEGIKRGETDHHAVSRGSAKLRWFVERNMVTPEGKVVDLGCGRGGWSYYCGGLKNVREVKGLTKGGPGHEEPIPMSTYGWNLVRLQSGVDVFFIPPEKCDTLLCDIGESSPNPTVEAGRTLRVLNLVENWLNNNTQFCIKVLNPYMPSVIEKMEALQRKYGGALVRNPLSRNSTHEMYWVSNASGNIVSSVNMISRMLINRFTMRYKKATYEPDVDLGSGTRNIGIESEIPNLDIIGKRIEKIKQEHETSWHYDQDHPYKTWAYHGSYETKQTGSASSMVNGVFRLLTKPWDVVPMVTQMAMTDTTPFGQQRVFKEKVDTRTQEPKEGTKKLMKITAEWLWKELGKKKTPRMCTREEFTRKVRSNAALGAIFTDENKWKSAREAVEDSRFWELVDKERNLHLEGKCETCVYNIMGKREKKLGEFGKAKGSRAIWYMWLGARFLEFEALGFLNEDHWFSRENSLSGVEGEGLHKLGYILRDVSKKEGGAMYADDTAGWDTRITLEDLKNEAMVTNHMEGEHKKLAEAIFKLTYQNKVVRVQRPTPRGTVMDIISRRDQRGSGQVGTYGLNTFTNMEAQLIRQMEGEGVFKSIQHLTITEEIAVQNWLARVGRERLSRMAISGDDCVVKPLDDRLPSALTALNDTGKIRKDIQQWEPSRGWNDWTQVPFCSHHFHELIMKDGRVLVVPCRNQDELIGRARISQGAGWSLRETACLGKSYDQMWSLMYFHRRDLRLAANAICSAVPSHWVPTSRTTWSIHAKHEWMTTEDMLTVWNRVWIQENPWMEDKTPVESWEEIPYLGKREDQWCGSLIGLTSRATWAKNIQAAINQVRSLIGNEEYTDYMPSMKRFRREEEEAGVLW

[17] = molecular target: T4, Rac GTPase-activating protein 1 (Homo sapiens, UniProt Q9H0H5); assay: MgcRacGAP GTPase-activating activity inhibitors, confirmation, biochemical, ADP Hunter fluorescence, primary and confirmatory (AID 624330); type: functional
T4 sequence (Q9H0H5 whole entry): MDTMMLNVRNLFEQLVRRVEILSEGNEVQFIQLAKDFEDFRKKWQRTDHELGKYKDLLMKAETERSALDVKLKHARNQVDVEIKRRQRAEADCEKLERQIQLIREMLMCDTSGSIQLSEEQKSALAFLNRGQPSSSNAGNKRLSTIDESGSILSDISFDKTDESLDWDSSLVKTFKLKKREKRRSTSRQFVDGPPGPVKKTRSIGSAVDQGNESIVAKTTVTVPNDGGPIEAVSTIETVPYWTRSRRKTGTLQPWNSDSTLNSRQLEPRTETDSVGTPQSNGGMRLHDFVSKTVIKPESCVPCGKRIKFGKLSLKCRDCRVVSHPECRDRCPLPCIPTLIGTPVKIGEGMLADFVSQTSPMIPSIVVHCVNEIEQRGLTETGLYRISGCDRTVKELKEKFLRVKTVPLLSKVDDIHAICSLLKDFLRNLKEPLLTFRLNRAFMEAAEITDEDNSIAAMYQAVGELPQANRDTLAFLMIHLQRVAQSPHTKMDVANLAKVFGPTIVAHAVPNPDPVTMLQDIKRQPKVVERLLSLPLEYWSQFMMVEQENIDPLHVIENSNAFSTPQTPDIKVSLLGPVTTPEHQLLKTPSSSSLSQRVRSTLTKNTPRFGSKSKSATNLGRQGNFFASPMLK

[18] = A cytotoxicity screen of small molecule inhibitors of the PhoP region in Salmonella typhi identified in the primary screen. [Related pubchem assays: 1850, 1864, 1985 ]; type: functional
[19] = molecular target: DNA dC->dU-editing enzyme APOBEC-3G (Homo sapiens, UniProt Q9HC16); assay: Dose Response confirmation of small molecule APOBEC3G DNA Deaminase Inhibitors via a fluorescence-based single-stranded DNA deaminase assay. [Related pubchem assays (depositor defined):AID493012, AID493028]; type: functional
Chain of DNA dC->dU-editing enzyme APOBEC-3G (Q9HC16 whole entry): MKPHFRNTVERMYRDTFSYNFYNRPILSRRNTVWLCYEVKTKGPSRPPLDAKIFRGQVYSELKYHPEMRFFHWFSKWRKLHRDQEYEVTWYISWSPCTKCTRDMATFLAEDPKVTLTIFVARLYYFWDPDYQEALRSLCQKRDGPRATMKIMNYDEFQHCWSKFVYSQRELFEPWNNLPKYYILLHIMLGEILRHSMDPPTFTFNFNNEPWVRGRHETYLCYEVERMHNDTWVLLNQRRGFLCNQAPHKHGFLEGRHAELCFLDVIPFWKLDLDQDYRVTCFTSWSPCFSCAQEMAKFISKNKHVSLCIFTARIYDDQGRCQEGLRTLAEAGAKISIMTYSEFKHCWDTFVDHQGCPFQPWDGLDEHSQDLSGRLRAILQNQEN

[20] = molecular target: Induced myeloid leukemia cell differentiation protein Mcl-1 (Homo sapiens, UniProt Q07820); type: functional
Chain of Induced myeloid leukemia cell differentiation protein Mcl-1 (Q07820 whole entry): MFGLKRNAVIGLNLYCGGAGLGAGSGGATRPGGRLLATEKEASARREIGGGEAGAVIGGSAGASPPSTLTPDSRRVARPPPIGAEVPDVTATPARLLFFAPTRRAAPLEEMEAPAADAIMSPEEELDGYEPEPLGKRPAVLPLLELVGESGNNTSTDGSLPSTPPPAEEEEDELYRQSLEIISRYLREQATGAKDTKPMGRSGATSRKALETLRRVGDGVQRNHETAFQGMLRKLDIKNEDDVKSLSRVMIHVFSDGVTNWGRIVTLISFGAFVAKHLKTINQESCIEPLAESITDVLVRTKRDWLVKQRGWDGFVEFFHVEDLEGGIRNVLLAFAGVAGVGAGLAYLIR

Chain of Cytochrome P450 2C19 (P33261 whole entry): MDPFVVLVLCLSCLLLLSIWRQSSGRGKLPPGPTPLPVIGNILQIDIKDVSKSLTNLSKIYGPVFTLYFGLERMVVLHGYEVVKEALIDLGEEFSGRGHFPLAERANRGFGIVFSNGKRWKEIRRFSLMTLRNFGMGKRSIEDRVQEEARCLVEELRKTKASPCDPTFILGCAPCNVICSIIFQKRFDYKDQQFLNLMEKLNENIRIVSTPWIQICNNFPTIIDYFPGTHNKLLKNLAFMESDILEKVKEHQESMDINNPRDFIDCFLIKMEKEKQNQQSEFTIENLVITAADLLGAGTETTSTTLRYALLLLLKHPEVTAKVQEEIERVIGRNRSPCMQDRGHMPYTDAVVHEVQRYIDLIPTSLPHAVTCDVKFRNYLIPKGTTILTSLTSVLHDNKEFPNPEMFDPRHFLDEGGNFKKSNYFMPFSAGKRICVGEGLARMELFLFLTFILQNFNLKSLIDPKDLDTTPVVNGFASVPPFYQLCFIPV
Chain of Cytochrome P450 2C9 (P11712 whole entry): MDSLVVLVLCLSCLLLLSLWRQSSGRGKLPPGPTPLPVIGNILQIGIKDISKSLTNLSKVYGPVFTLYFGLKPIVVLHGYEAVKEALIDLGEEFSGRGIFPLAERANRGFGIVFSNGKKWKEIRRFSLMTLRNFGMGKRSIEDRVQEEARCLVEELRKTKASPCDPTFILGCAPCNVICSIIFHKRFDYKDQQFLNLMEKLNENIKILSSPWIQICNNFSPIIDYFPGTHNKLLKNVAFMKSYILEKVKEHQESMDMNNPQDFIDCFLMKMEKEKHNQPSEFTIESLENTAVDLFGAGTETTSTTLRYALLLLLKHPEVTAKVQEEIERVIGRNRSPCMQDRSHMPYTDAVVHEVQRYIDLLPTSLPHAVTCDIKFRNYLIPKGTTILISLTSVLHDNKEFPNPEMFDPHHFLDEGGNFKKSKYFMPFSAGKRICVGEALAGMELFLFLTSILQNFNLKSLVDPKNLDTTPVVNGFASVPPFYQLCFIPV

Fc1nc(N2CCCC2)c(F)c(Oc2ccccc2Oc2c(F)c(F)nc(N3CCCC3)c2F)c1F
AC50 (Cytochrome P450 2C9): 1 µM (inconclusive)
AC50 (Cytochrome P450 2C19): 5.62 µM (inconclusive)
AC50 (Cytochrome P450 2D6): inconclusive

O=C(NC(=S)NNC(=O)[C@H]1C[C@@H]1c1ccccc1)c1cccc(F)c1
IC50 (cells): 18.8 µM (active)
CC50 [1]: > 40 µM (active)
EC50 [2]: 3.91 µM (active)
EC50 [3]: 1.89 µM (active)
EC50 (Streptococcus): 3.65 µM (active)
EC50 [4]: 1.91 µM (active)
EC50 [5]: > 160 µM (inactive)
EC50 [6]: 4.22 µM (active)
EC50 [7]: 17.6 µM (active)

CN(C)S(=O)(=O)c1cccc(CSCc2cccc(S(=O)(=O)N(C)C)c2)c1
IC50 (HEK293 [8]): > 20 µM (inactive)
IC50 (HEK293 [9]): > 20 µM (inactive)
IC50 (Tumor necrosis factor): 2.09 µM (active)
EC50 (HEK293 [10]): 1.3 µM (active)
IC50 (HEK293 [11]): 3.06 µM (active)
IC50 [12]: 2.12 µM (active)
IC50 (HEK293 [13]): 5 µM (active)
AC50 (INS1): 3.3 µM (active)

CCN1CCc2c(sc(NC(=O)c3ccc(S(=O)(=O)N4CCCC4)cc3)c2C(=O)NC)C1
AC50 [14]: 9.14 µM (active)

CCOC(=O)CSc1nnc(NC(=O)c2cccc(S(=O)(=O)N3CCCCCC3)c2)s1
AC50 (Cytochrome P450 2C19): 2 µM (inconclusive)
AC50 (Cytochrome P450 2D6): inconclusive

COc1ccc(OC)c(Nc2cc(-c3ccccc3)nc(N)n2)c1
IC50 [15]: > 80 µM (inactive)
EC50 [16]: 4.73 µM (active)

Cc1ccc(/C=C2\SC(=S)N(NS(=O)(=O)c3ccc(C)cc3)C2=O)cc1
IC50 (Genome polyprotein): 25.9 µM (active)

CCCCN(CCCC)CCNC(=O)CSCc1ccc(C)cc1
IC50 [17]: 147 µM (active)
EC50 [18]: > 50 µM (active)

C=C(C)C(=O)Nc1cccc(C2=NOC3(C2)C[C@@H](C(N)=O)N(C(=O)[C@H]2CCC(=O)N2)C3)c1 (some centres undefined)
IC50 [19]: 19.3 µM (active)

CCCCN=C(S)NNC(=O)c1sccc1C
AC50 (Cytochrome P450 2D6): inconclusive

CC(C)Nc1c([N+](=O)[O-])nn(C)[n+]1[O-]
AC50 [14]: 299 µM (active)

CCn1nc(C)cc1C(=O)NC1CCCc2c1cnn2-c1ccc(C)c(C)c1 (centres undefined)
IC50 (HEK293 [9]): > 20 µM (inactive)
IC50 (Tumor necrosis factor): 4.43 µM (active)
IC50 [12]: 4.76 µM (active)

CCCCn1c(NCc2ccc(N(C)C)cc2)nc2ccccc21
IC50 [20]: 1.26 µM (active)
EC50 [16]: 1.5 µM (active)

O=C(c1cccc(C(F)(F)F)c1)C1CCCN(Cc2cccn2-c2ccccn2)C1 (centres undefined)
EC50 [16]: 5.96 µM (active)

COCCn1c(C)cc(C(=O)CSc2nnc(C)s2)c1C
AC50 [14]: 3.04 µM (active)

COc1ccc(C(=O)Nc2ccc(NC(=O)c3ccco3)c(Cl)c2)cc1OC
AC50 (Cytochrome P450 2D6): inconclusive

O=C(CSc1ccccc1)Nc1nnc(COc2ccc(Cl)cc2)s1
IC50 [19]: 32.3 µM (active)

O=C1C(=NO)CCc2ccccc21
IC50 (Genome polyprotein): 88.6 µM (active)

OC1(c2ccc(F)cc2)CCN(Cc2ccccc2)C1 (centres undefined)
EC50 [16]: 2.99 µM (active)

Cc1cc(-c2nnc(S)n2/N=C/c2ccco2)[nH]n1
IC50 [19]: 14.2 µM (active)

NCCCCC(=O)O [5-AMINOVALERIC ACID]
AC50 (Cytochrome P450 2D6): inconclusive
